Values after ≈ are worked out from the molar mass of the structure shown.
Key:
Format in all cases: cell-based
[1] = test system: SARS-CoV-2 spike pseudotyped lentivirus; assay: organism not typed; conditions: HEK-293T, read-out: IC50, concentration which reduced pseudovirus infections by half
[2] = test system: SARS-CoV-2 variant B.1.1.7; assay: microbe, parasite or virus in culture; conditions: Severe acute respiratory syndrome coronavirus 2, Vero C1008
[3] = test system: SARS-CoV-2 variant B.1.351; assay: microbe, parasite or virus in culture; conditions: Severe acute respiratory syndrome coronavirus 2, Vero C1008

Compound | IC50 [1] [µg/mL] | IC50 [2] [µg/mL] | IC50 [3] [µg/mL]
C=C(C)[C@@H]1CCC(C)=C[C@H]1c1c(O)cc(CCCCC)c(C(=O)O)c1O [CBDA, Cannabidiolic acid] | 7.7 (≈ 21.5 µM) | 11 (≈ 30.7 µM) | 19 (≈ 53 µM)
CCCCCc1cc(O)c(C/C=C(\C)CCC=C(C)C)c(O)c1C(=O)O [CBGA, Cannabigerolic acid] | 8.4 (≈ 23.3 µM) | 26 (≈ 72.1 µM) | 37 (≈ 103 µM)

Reference: patent publication US20240316074A1 (priority 2021, published 2024)
